Data taken from publication PMC11510191, “Exploring Benzo[h]chromene Derivatives as Agents against Protozoal and Mycobacterial Infections” (Pharmaceuticals, 2024).
Converted amounts (≈) assume the structure as drawn. Read-outs that look alike come from different tables or passages of the source.

Assays:
[1] = tested on: T. cruzi epimastigotes; experiment: Trypanocidal activity on T. cruzi epimastigotes (CL-B5 lacZ, CPRG); assay type: cell-based, Trypanosoma cruzi clone CL-B5; conditions: for Selectivity Index L929/ T. cruzi: SI = CC50 L929/IC50 parasites; for IC50: 72 h
Procedure: For in vitro studies of T. cruzi. the clone CL-B5 was used. Parasites were stably transfected with the Escherichia coli β-galactosidase gene (lacZ), provided by Facultad de Farmacia (Universidad Complutense de Madrid). Epimastigotes were grown at 28 °C in liver infusion tryptose broth (Difco, Detroit, MI, USA) with 10% fetal bovine serum (FBS) (Gibco, Carlsbad, CA, USA), penicillin (Ern S.A., Barcelona, Spain), and streptomycin (Reig Jofré S.A., Barcelona. Spain), as described previously, and harvested during the exponential growth phase. Briefly, the screening assay was performed in 96-well microplates (Sarstedt, Inc., Newton, NC, USA) with cultures that had not reached the stationary phase. Briefly, epimastigotes were seeded at 2 × 10^5 parasites/mL in 200 µL growth media. The plates were then incubated with the respective compounds at 28 °C for 72 h. Afterwards, 50 µL of CPRG solution was added, resulting in a final concentration of 200 µM. The plates were incubated at 37 °C for an additional 4 h and then read at 595 nm. Each concentration was tested in triplicate. […] These values were calculated from the sigmoidal dose–response curve adjustment using the statistical software program Graph-Pad Prims 3.0. Benznidazole was used as a reference drug.

[2] = tested on: M. tuberculosis CIPTIR -D152; experiment: MIC broth microdilution; assay type: cell-based; conditions: Mycobacterium tuberculosis
[3] = tested on: M. tuberculosis CIPTIR-F296; experiment: MIC broth microdilution; assay type: cell-based; conditions: Mycobacterium tuberculosis, CIPTIRF296
[4] = tested on: M. tuberculosis ATCC H37Rv; experiment: MIC broth microdilution; assay type: cell-based; conditions: Mycobacterium tuberculosis, H37RV
[5] = tested on: M. abscessus LIID-01; experiment: MIC broth microdilution; assay type: cell-based; conditions: Mycobacteroides abscessus, LIID01, 72 h
[6] = tested on: M. abscessus LIID-02; experiment: MIC broth microdilution; assay type: cell-based; conditions: Mycobacteroides abscessus, LIID02, 72 h
[7] = tested on: M. abscessus LIID-03; experiment: MIC broth microdilution; assay type: cell-based; conditions: Mycobacteroides abscessus, LIID03, 72 h
[8] = tested on: M. fortuitum LIID-01; experiment: MIC broth microdilution; assay type: cell-based; conditions: Mycolicibacterium fortuitum, LIID01, 72 h
[9] = tested on: M. intracellulare LIID-01; experiment: MIC broth microdilution; assay type: cell-based; conditions: Mycobacterium intracellulare, LIID01
[10] = tested on: M. intracellulare LIID-02; experiment: MIC broth microdilution; assay type: cell-based; conditions: Mycobacterium intracellulare, LIID02
[11] = tested on: E. coli (G−); experiment: MIC broth microdilution; assay type: cell-based; conditions: Escherichia coli, 24 h
[12] = tested on: P. aeruginosa (G−); experiment: MIC broth microdilution; assay type: cell-based; conditions: Pseudomonas aeruginosa, 24 h
[13] = tested on: S. typhi (G−); experiment: MIC broth microdilution; assay type: cell-based; conditions: Salmonella enterica, 24 h
[14] = tested on: S. aureus (G+); experiment: MIC broth microdilution; assay type: cell-based; conditions: Staphylococcus aureus, 24 h
[15] = tested on: L. innocua (G+); experiment: MIC broth microdilution; assay type: cell-based; conditions: Listeria innocua, 24 h
[16] = tested on: L. monocytogenes (G+); experiment: MIC broth microdilution; assay type: cell-based; conditions: Listeria monocytogenes, 24 h
[17] = tested on: E. faecalis (G+); experiment: MIC broth microdilution; assay type: cell-based; conditions: Enterococcus faecalis, 24 h
[18] = tested on: B. cereus (G+); experiment: MIC broth microdilution; assay type: cell-based; conditions: Bacillus cereus, 24 h
[19] = tested on: M. luteus (G+); experiment: MIC broth microdilution; assay type: cell-based; conditions: Micrococcus luteus, 24 h
[20] = Cytotoxicity on L929 fibroblasts (resazurin); conditions: mouse
[21] = tested on: NCTC929 fibroblast cells (L929); experiment: Cytotoxicity on L929 fibroblasts (resazurin); conditions: L929 fibroblasts
[22] = tested on: Leishmania infantum (L. i) promastigotes; experiment: Leishmanicidal activity on L. infantum promastigotes (resazurin); conditions: for IC50: Leishmania infantum, 48 h, read-out: Leishmanicidal Activity IC50—L. i; for Selectivity Index L929/ L. i: SI = CC50 L929/IC50 parasites
Procedure: (§1) The culture of L. braziliensis (MHOM/CO/88/UA301) and L. infantum (MCAN/ES/92/BCN83) was obtained from the Facultad de Farmacia, Universidad Complutense de Madrid, Spain.
(§2) The maintenance of the strains, the form of cultivation, and the isolation of shape promastigota followed the procedures described by Roldós et al. [8]. The promastigotes were grown at 22 °C in Schneider’s Drosophila medium supplemented with 20% FBS. The assay was performed using a modification of a previous method [47]. Promastigotes (2 × 10^6 parasites/well) were cultured in 96-well plastic plates. Compounds were dissolved in dimethylsulfoxide (DMSO). Different dilutions of the compounds up to a 200 µL final volume were added. After 48 h at 26 °C, 20 µL of 2 mM resazurin solution was added and the oxidation–reduction was quantified at 570 and 600 nm. The solution of resazurin was prepared at 2.5 mM in phosphate-buffered solution (PBS), pH 7.4, and filtered through 0.22 µM prior to use. All tests were carried out in triplicate. Resazurin sodium salt was obtained from Sigma–Aldrich (St. Louis, MO, USA) and stored at 4 °C protected from light. The efficacy of each compound was estimated by calculating the IC50 values.

[23] = tested on: Leishmania brazilensis (L. b) promastigotes; experiment: Leishmanicidal activity on L. braziliensis promastigotes (resazurin); conditions: for IC50: Leishmania, 48 h, read-out: Leishmanicidal Activity IC50—L. b; for Selectivity Index L929/ L. b: SI = CC50 L929/IC50 parasites
Procedure: as §1, §2

[24] = in vitro; conditions: mouse
[25] = Trypanosoma cruzi, epimastigotes, read-out: Trypanocidal Activity IC50 T. cruzi

| Compound | MIC [2] [µg/mL] | MIC [3] [µg/mL] | MIC [4] [µg/mL] | MIC [5] [µg/mL] | MIC [6] [µg/mL] | MIC [7] [µg/mL] | MIC [8] [µg/mL] | MIC [9] [µg/mL] | MIC [10] [µg/mL] | MIC [11] [µg/mL] | MIC [12] [µg/mL] | MIC [13] [µg/mL] | MIC [14] [µg/mL] | MIC [15] [µg/mL] | MIC [16] [µg/mL] | MIC [17] [µg/mL] | MIC [18] [µg/mL] | MIC [19] [µg/mL] | IC50 [22] [µM] | IC50 [23] [µM] | also measured |
| --- | --- | --- | --- | --- | --- | --- | --- | --- | --- | --- | --- | --- | --- | --- | --- | --- | --- | --- | --- | --- | --- |
| Cc1ccc(S(=O)(=O)n2cc(CCC(=O)Oc3c4c(c5ccccc5c3OC(=O)CCc3cn(S(=O)(=O)c5ccc(C)cc5)nn3)OC(C)(C)C=C4)nn2)cc1 [Compound 2f] | > 200 | > 200 | > 200 | > 200 | > 200 | > 200 | > 200 | 50 (≈ 62.7 µM) | > 200 | > 200 | > 200 | > 200 | > 200 | > 200 | > 200 | > 200 | > 200 | > 200 | 38.2 | 14.5 | Selectivity Index L929/ T. cruzi [1]: 2; IC50 ([1]; Trypanosoma cruzi, read-out: Trypanocidal Activity IC50 T. cruzi, epimastigotes, 72 h): 21.4 µM; IC50 ([1]; epimastigotes, read-out: Trypanocidal Activity IC50 T. cruzi): 21.1 µM; CC50 at 24 h [20]: 31.8 µM; Cytotoxicity (in words) [21]: most cytotoxic; Selectivity Index L929/ L. i [22]: 1; Selectivity Index L929/ L. b [23]: 2 |
| Cc1ccc(S(=O)(=O)n2cc(CCCC(=O)Oc3c4c(c5ccccc5c3OC(=O)CCCc3cn(S(=O)(=O)c5ccc(C)cc5)nn3)OC(C)(C)C=C4)nn2)cc1 [Compound 3f] | > 200 | > 200 | > 200 | 100 (≈ 121 µM) | 100 (≈ 121 µM) | 100 (≈ 121 µM) | 100 (≈ 121 µM) | 100 (≈ 121 µM) | > 200 | 100 (≈ 121 µM) | 100 (≈ 121 µM) | > 200 | 100 (≈ 121 µM) | 100 (≈ 121 µM) | 100 (≈ 121 µM) | > 200 | 100 (≈ 121 µM) | 100 (≈ 121 µM) | 46.6 | 17.6 | Selectivity Index L929/ T. cruzi [1]: 13; IC50 [1, 25]: 24.7 µM; CC50 at 24 h [20]: 312 µM; Cytotoxicity (in words) [21]: no cytotoxicity; Selectivity Index L929/ L. i [22]: 7; Selectivity Index L929/ L. b [23]: 18 |
| CC1(C)C=Cc2c(OC(=O)CCCc3cn(Cc4ccc([N+](=O)[O-])cc4)nn3)c(OC(=O)CCCc3cn(Cc4ccc([N+](=O)[O-])cc4)nn3)c3ccccc3c2O1 [Compound 3h] | > 200 | > 200 | > 200 | 100 (≈ 127 µM) | 100 (≈ 127 µM) | 100 (≈ 127 µM) | > 200 | > 200 | > 200 | > 200 | > 200 | 100 (≈ 127 µM) | 100 (≈ 127 µM) | > 200 | > 200 | > 200 | > 200 | > 200 | > 256 | > 256 | IC50 [1, 25]: > 256 µM; CC50 at 24 h [20]: > 256 µM |
| CCCCCCCCCCCCCCCCOP(=O)([O-])OCC[N+](C)(C)C [Miltefosine, reference compound] | – | – | – | – | – | – | – | – | – | – | – | – | – | – | – | – | – | – | 25.1 | 64 | CC50 at 24 h [24]: 2750 µM; Selectivity Index L929/ L. i [22]: 109.7; Selectivity Index L929/ L. b [23]: 43.0 |
